Reference: EP1935986B1, “Luminogenic and fluorogenic compounds and methods to detect molecules or conditions” (priority 2005, dated 2006)

What was measured:
CYP1A1 = target: T1, CYP1A1 (Homo sapiens, UniProt P04798); assay: Two-step luminescent P450 screen of luciferin derivatives; conditions: 50 µM substrate, 1 pmole P450, 37°C 30 minutes; result in words
T1 sequence (P04798 1-512): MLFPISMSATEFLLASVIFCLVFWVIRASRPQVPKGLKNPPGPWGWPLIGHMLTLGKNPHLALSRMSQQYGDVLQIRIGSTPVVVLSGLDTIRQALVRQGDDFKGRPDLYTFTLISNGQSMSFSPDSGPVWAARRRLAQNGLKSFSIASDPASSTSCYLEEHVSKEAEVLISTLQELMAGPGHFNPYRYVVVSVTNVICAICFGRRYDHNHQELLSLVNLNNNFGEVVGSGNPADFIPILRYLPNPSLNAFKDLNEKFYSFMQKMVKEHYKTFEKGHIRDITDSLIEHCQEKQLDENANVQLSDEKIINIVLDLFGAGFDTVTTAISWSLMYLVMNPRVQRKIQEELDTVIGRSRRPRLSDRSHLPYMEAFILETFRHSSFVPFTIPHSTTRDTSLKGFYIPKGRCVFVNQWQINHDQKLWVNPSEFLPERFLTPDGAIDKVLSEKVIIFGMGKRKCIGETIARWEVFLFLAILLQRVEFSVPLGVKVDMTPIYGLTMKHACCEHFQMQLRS

CYP2C8 = target: T2, CYP2C8 (Homo sapiens, UniProt P10632); assay: as above; conditions: 50 µM substrate, 1 pmole P450, result in words
T2 sequence (P10632 1-490): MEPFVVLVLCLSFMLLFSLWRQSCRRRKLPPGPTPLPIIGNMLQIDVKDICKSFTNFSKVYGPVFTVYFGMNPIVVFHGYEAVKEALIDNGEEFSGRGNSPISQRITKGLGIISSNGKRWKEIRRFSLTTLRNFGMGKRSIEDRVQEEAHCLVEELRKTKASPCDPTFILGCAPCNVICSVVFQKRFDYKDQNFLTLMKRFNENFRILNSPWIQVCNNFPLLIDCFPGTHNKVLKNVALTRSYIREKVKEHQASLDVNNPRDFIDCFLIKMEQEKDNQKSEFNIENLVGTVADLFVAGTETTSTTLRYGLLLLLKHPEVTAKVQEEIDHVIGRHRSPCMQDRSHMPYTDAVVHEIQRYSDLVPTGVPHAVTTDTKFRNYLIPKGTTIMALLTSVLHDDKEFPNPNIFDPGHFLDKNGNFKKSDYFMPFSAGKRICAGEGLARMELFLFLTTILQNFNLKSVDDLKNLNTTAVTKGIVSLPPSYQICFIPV

CYP2C9 = target: T3, CYP2C9 (Homo sapiens, UniProt P11712); assay: as above; format: biochemical; conditions: 50 µM substrate, 1 pmole P450, result in words
T3 construct: purchased Discovery Labware (BD/Gentest); host or cells: insect cell expression system (membrane fractions)
T3 sequence (P11712 whole entry): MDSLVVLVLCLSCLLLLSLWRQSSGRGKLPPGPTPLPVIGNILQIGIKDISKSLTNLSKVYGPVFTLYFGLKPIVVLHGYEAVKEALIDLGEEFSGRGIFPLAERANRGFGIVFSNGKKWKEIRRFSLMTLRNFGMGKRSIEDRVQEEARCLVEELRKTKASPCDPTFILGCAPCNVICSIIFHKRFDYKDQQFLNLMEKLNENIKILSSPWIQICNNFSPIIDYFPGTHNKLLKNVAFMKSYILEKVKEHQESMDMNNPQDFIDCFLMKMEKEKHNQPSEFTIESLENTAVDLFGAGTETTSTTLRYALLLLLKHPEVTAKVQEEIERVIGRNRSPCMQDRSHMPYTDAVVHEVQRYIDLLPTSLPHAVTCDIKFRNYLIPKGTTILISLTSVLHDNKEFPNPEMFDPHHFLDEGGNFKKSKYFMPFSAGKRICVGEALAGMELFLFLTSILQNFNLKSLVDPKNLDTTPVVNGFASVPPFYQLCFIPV
Experimental: (§1) P450s are Supersomes™ purchased from Discovery Labware (BD/Gentest). […] HLM is human liver microsomes.
(§2) 1X substrate concentration: 50 µM.

CYP1A2 = target: T4, CYP1A2 (Homo sapiens, UniProt P05177); assay: as above; format: biochemical; conditions: 50 µM substrate, 1 pmole P450, result in words
T4 construct: purchased Discovery Labware (BD/Gentest); host or cells: insect cell expression system (membrane fractions)
T4 sequence (P05177 2-516 limits assumed): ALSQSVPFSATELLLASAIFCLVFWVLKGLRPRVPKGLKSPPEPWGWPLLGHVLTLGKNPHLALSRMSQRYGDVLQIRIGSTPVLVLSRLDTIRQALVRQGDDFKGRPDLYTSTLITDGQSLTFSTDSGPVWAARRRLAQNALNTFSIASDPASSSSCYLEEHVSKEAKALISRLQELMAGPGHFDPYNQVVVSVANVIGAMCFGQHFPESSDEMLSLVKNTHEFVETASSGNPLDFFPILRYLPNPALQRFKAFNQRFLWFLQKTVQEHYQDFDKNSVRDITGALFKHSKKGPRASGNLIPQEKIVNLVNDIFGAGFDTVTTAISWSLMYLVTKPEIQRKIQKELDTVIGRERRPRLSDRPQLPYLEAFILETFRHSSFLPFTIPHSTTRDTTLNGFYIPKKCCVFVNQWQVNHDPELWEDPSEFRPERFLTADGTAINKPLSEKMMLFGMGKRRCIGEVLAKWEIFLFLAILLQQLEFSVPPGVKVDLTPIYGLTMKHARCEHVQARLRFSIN
Experimental: as §1, §2

CYP4A11 = target: T5, CYP4A11 (Homo sapiens, UniProt Q02928); assay: as above; format: biochemical; conditions: result in words
T5 construct: purchased Discovery Labware (BD/Gentest); host or cells: insect cell expression system (membrane fractions)
T5 sequence (Q02928 5-519): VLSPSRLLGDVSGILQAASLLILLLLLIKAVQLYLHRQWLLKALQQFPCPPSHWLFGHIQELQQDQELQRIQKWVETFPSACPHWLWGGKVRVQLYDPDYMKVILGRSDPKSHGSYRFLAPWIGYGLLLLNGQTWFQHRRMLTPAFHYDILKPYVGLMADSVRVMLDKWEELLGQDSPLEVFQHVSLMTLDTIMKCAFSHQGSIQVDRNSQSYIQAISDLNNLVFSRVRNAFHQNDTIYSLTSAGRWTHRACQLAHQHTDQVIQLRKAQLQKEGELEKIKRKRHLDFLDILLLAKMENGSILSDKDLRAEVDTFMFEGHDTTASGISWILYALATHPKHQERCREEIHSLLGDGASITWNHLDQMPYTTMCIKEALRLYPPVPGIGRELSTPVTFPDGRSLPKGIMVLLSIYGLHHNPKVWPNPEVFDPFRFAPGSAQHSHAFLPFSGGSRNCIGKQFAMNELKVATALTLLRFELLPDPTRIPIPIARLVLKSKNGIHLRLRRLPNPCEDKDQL
Experimental: as §1, §2

QuantiLum Luciferase [1] = target: T6, QuantiLum Luciferase (Photinus pyralis, UniProt P08659); assay: Emission spectra of luciferase reactions with luciferin, 5'-fluoroluciferin, 7'-fluoroluciferin; format: biochemical, firefly; conditions: reagent pH 7.4
T6 construct: purchased Promega Corporation E170
T6 sequence (P08659 whole entry): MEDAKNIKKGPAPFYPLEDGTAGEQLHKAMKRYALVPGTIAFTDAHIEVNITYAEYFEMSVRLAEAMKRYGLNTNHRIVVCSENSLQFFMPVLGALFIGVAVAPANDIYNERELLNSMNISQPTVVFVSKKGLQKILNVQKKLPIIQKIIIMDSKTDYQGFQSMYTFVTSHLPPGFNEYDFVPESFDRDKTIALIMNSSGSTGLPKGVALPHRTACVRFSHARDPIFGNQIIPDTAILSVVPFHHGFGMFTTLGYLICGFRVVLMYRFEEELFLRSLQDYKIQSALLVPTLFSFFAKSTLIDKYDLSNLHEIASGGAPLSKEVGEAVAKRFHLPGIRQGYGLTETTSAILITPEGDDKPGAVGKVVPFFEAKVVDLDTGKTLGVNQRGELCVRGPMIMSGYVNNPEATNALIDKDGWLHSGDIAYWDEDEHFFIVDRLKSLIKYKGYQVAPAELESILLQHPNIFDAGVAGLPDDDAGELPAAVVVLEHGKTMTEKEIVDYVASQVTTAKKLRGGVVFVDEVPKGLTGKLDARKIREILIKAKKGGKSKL
Experimental: All compounds except fluoroluciferin and ATP were purchased from Sigma Chemical. ATP was purchased from Amersham/Invitrogen.
Spectra were measured using 0.5s integration with 1 nm increments on a Spex Fluorolog.

QuantiLum Luciferase [2] = target: T6, QuantiLum Luciferase; assay: pH dependence of firefly luciferase luminescence with luciferin or 5'-fluoroluciferin; format: biochemical; conditions: for Absolute Luminescence: 630 µM substrate
Experimental: Aliquots of these solutions were then placed into tubes and buffers were added to 80 mM.
Luminescent reactions were initiated by combining 100 µl of the luciferase-containing solution and 100 µl of the luciferase detection reagents. Luminescence was integrated over 1 second per sample using the Veritas plate luminometer (Turner BioSystems). N=3 for each result.
The average luminescence measured for each set of samples is listed in Table 50 (relative standard deviation ≤ 4.0%). […]

QuantiLum Luciferase [3] = target: T6, QuantiLum Luciferase; assay: ATP titration of firefly luciferase reactions with luciferin and fluoroluciferins; format: biochemical; conditions: result in words
Experimental: All compounds except 5'-fluoroluciferin and DTT were purchased from Sigma Chemical. To some of this reagent 5 mM ATP (Amersham/Invitrogen) was added, then serially diluted by half-logs to 0.05 mM. Reactions were initiated by adding equal volumes (0.1 ml) of reagent and DMEM medium (Gibco/Invitrogen) containing 0.1% Prionex® (Pentapharm) and 1.4 x 10-5 mg/ml QuantiLum™ Luciferase (Promega Corporation).
For ATP titrations for 7'-fluoroluciferin, reagent was created containing 200 mM HEPES, 200 mM PIPES, 1 mM CDTA, 0.5% Tergitol NP-9, 0.03% Benzyl dodecyldimethyl ammonium bromide, 30 mM thiourea, 10 mM magnesium sulfate, and 0.15 mM 7'-fluoroluciferin. This solution was separated into 3 parts and pH of the reagents were 7.4, 7.2 and 6.7. To some of this reagent, 10 mM ATP (Amersham/Invitrogen) was added. The ATP was serially diluted by quarter-logs from 10 mM to 0.32 mM.
Reactions were initiated by adding equal volumes (0.03 ml) of reagent and DMEM medium (Gibco/Invitrogen) containing 0.1% Prionex® (Pentapharm) and 1.4 x 10-5 mg/ml QuantiLum™ Luciferase (Promega Corporation).
Luminescence was measured for 0.5 seconds per well using Berthold Orion luminometer.

[4] = tested on: panel of recombinant human P450s; assay: Two-step luminescent P450 screen of luciferin derivatives, whole panel incl. HLM; format: biochemical; conditions: 50 µM substrate; result in words
Experimental: In addition, it was also of interest to identify substrates with improved selectivity for single P450 enzymes. […] Derivatives useful as P450 substrates may be employed in assays to detect inhibitors for particular P450 enzymes (see Figures 17-18).
as §1, §2

CYP3A7 = CYP3A7 (Homo sapiens, UniProt P24462); assay: Two-step luminescent P450 screen of luciferin derivatives; conditions: result in words
CYP3A7, sequence (P24462 whole entry): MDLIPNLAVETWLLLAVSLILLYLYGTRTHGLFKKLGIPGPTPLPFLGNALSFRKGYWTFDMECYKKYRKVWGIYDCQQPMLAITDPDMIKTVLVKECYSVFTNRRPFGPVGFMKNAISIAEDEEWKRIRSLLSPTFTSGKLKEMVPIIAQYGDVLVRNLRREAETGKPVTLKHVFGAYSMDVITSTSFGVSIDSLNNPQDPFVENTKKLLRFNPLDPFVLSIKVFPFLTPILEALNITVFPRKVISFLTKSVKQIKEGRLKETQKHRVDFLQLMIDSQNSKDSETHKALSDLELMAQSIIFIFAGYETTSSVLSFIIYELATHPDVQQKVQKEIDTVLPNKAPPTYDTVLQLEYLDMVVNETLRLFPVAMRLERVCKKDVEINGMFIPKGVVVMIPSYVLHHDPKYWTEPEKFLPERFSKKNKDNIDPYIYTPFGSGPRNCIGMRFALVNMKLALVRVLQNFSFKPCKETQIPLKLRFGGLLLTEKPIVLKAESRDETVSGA

porcine esterase = assay: Two-step luminescent carboxylesterase assay with D-luciferin esters; format: biochemical; conditions: result in words
From the text: D-luciferin esters were substrates for carboxylesterases in a two step luminescent assay format similar to that used for P450s. […] Though signals varied between P450 preparations no P450 preparation was much brighter than the control. It seems likely then that the signals were not due to P450 activity in the preparations hut rather, variable amounts of carboxyl esterase activities. Methyl, ethyl and picolinyl esters of D-luciferin were also characterized as substrates for a purified preparation of porcine esterase without any p450. In this format each ester linked group was cleaved by the esterase to yield D-luciferin that in turn reacted with luciferase to make light.

## COc1cc(C)c2nc(C3=NC(C(=O)O)CS3)sc2c1 (centres unmarked) [4-methyl-6-(O-methyl)-luciferin]
CYP1A1
  P450 activity / selectivity with the derivative as substrate: preferred substrate
CYP2C8
  P450 activity / selectivity with the derivative as substrate: enhanced selectivity
CYP2C8; listed as line 11
  P450 activity / selectivity with the derivative as substrate: preferred substrate
CYP2C9
  P450 activity / selectivity with the derivative as substrate: enhanced selectivity
CYP2C9; listed as line 11
  P450 activity / selectivity with the derivative as substrate: preferred substrate
CYP1A2
  P450 activity / selectivity with the derivative as substrate: enhanced selectivity
CYP1A2; listed as line 11
  P450 activity / selectivity with the derivative as substrate: preferred substrate
CYP4A11
  P450 activity / selectivity with the derivative as substrate: did not react

## O=C(O)[C@H]1CSC(c2nc3cc(F)c(O)cc3s2)=N1 [5'-fluoroluciferin]
QuantiLum Luciferase [1]
  λmax of luminescence, blue-shifted from regular luciferin: approximately 25 nm
QuantiLum Luciferase [1]; listed as 5' fluoroluciferin
  λmax of luminescence, blue-shifted from regular luciferin: about 10 nm
QuantiLum Luciferase [2]; pH 6.900, MOPS
  Absolute Luminescence: 272,127 RLU
QuantiLum Luciferase [2]; pH 6.9 to 8.3
  change of luminescence over the pH range tested: about 40%
QuantiLum Luciferase [2]; pH 7.133, MOPS
  Absolute Luminescence: 325,337 RLU
QuantiLum Luciferase [2]; pH 7.296, MOPS
  Absolute Luminescence: 331,515 RLU
QuantiLum Luciferase [2]; pH 7.303, HEPES
  Absolute Luminescence: 323,456 RLU
QuantiLum Luciferase [2]; pH 7.499, MOPS
  Absolute Luminescence: 334,288 RLU
QuantiLum Luciferase [2]; pH 7.521, HEPES
  Absolute Luminescence: 360,308 RLU
QuantiLum Luciferase [2]; pH 7.673, Tricine
  Absolute Luminescence: 351,411 RLU
QuantiLum Luciferase [2]; pH 7.720, HEPES
  Absolute Luminescence: 378,927 RLU
QuantiLum Luciferase [2]; pH 7.883, Tricine
  Absolute Luminescence: 357,883 RLU
QuantiLum Luciferase [2]; pH 7.89 reagent
  decrease of luminescence when buffer changed from HEPES to tricine: 6%
QuantiLum Luciferase [2]; pH 7.892, HEPES
  Absolute Luminescence: 377,498 RLU
QuantiLum Luciferase [2]; pH 8.100, Tricine
  Absolute Luminescence: 357,041 RLU
QuantiLum Luciferase [2]; pH 8.327, Tricine
  Absolute Luminescence: 317,030 RLU
QuantiLum Luciferase [3]
  ATP requirement of the luciferase reaction compared with luciferin: saturated with ATP at a higher concentration

## COc1cc2nc(C3=NC(C(=O)O)CS3)sc2cc1OC (centres unmarked) [5,6-dimethoxyluciferin]
[4]
  luminescent signals with the panel of P450 enzymes: did not produce large luminescent signals with any P450
CYP2C9
  P450 activity / selectivity with the derivative as substrate: preferred substrate
CYP4A11
  P450 activity / selectivity with the derivative as substrate: preferred substrate

## O=C(O)[C@H]1CSC(c2nc3ccc(OCSc4ccc(Cl)cc4)cc3s2)=N1 [6'-p-chlorophenylthiol-methoxy-luciferin, 6-(4-Chloro-phenylthiomethoxy) luciferin]
CYP3A7
  P450 activity / selectivity with the derivative as substrate: showed selectivity

## Nc1ccc(Oc2ccc3nc(C4=N[C@@H](C(=O)O)CS4)ccc3c2)cc1 [6(p-aminophenyloxy)-quinolylluciferin]
[4]
  luminescent signals with the panel of P450 enzymes: did not produce large luminescent signals with any P450

## CCOC(=O)[C@H]1CSC(c2nc3ccc(O)cc3s2)=N1 [D-luciferin ethyl ester]
Porcine esterase
  substrate for carboxylesterases in a two step luminescent assay format: effective

## COC(=O)[C@H]1CSC(c2nc3ccc(O)cc3s2)=N1 [D-luciferin methyl ester]
Porcine esterase
  substrate for carboxylesterases in a two step luminescent assay format: effective

## O=C(OCc1cccnc1)[C@H]1CSC(c2nc3ccc(O)cc3s2)=N1 [D-luciferin picolinyl ester, m-picolinyl ester of luciferin]
Porcine esterase
  substrate for carboxylesterases in a two step luminescent assay format: effective

## O=C(O)[C@H]1CSC(c2nc3ccc(OCc4cccnc4)cc3s2)=N1 [luciferin 6' 3-picolinyl ether, reference compound]
CYP3A7
  P450 activity / selectivity with the derivative as substrate: cross reacted significantly

## bis-luciferin-xylyldiether
CYP3A7
  P450 activity / selectivity with the derivative as substrate: selective
